Measured values published in paper PMC9829398 (Plant Biotechnology Journal, 2022).

Tests used:
[1] = test system: Aurora C; details: read-out: IC50 for Aurora C; ref D'Alise et al., [2008]; cited from earlier work
[2] = test system: tobacco roots; experiment: RNA-seq of tobacco roots (DEGs, GO and KEGG classification and enrichment); assay type: in vivo
[3] = test system: Aurora A; details: read-out: IC50 for Aurora A; ref D'Alise et al., [2008]; cited from earlier work
[4] = test system: Aurora B; details: read-out: IC50 for Aurora B; ref D'Alise et al., [2008]; cited from earlier work
[5] = test system: ANJEA‐CD; experiment: ANJEA-CD kinase activity (autophosphorylation); assay type: biochemical, Arabidopsis thaliana; details: 5 μM
[6] = KEGG ko00040 Pentose and glucuronate interconversions
[7] = KEGG ko00052 Galactose metabolism
[8] = KEGG ko00062 Fatty acid elongation
[9] = KEGG ko00071 Fatty acid degradation
[10] = KEGG ko00073 Cutin, suberine and wax biosynthesis
[11] = KEGG ko00100 Steroid biosynthesis
[12] = KEGG ko00250 Alanine, aspartate and glutamate metabolism
[13] = KEGG ko00270 Cysteine and methionine metabolism
[14] = KEGG ko00290 Valine, leucine and isoleucine biosynthesis
[15] = KEGG ko00330 Arginine and proline metabolism
[16] = KEGG ko00350 Tyrosine metabolism
[17] = KEGG ko00360 Phenylalanine metabolism
[18] = KEGG ko00410 beta-Alanine metabolism
[19] = KEGG ko00430 Taurine and hypotaurine metabolism
[20] = KEGG ko00460 Cyanoamino acid metabolism
[21] = KEGG ko00480 Glutathione metabolism
[22] = KEGG ko00500 Starch and sucrose metabolism
[23] = KEGG ko00511 Other glycan degradation
[24] = KEGG ko00520 Amino sugar and nucleotide sugar metabolism
[25] = KEGG ko00531 Glycosaminoglycan degradation
[26] = KEGG ko00561 Glycerolipid metabolism
[27] = KEGG ko00564 Glycerophospholipid metabolism
[28] = KEGG ko00590 Arachidonic acid metabolism
[29] = KEGG ko00591 Linoleic acid metabolism
[30] = KEGG ko00592 alpha-Linolenic acid metabolism
[31] = KEGG ko00603 Glycosphingolipid biosynthesis - globo series
[32] = KEGG ko00604 Glycosphingolipid biosynthesis - ganglio series
[33] = KEGG ko00650 Butanoate metabolism
[34] = KEGG ko00730 Thiamine metabolism
[35] = KEGG ko00760 Nicotinate and nicotinamide metabolism
[36] = KEGG ko00770 Pantothenate and CoA biosynthesis
[37] = KEGG ko00904 Diterpenoid biosynthesis
[38] = KEGG ko00905 Brassinosteroid biosynthesis
[39] = KEGG ko00906 Carotenoid biosynthesis
[40] = KEGG ko00908 Zeatin biosynthesis
[41] = KEGG ko00909 Sesquiterpenoid and triterpenoid biosynthesis
[42] = KEGG ko00910 Nitrogen metabolism
[43] = KEGG ko00940 Phenylpropanoid biosynthesis
[44] = KEGG ko00941 Flavonoid biosynthesis
[45] = KEGG ko00950 Isoquinoline alkaloid biosynthesis
[46] = KEGG ko00960 Tropane, piperidine and pyridine alkaloid biosynthesis
[47] = KEGG ko00980 Metabolism of xenobiotics by cytochrome P450
[48] = KEGG ko00982 Drug metabolism - cytochrome P450
[49] = KEGG ko01040 Biosynthesis of unsaturated fatty acids
[50] = KEGG ko03320 PPAR signaling pathway
[51] = KEGG ko04010 MAPK signaling pathway
[52] = KEGG ko04011 MAPK signaling pathway - yeast
[53] = KEGG ko04020 Calcium signaling pathway
[54] = KEGG ko04022 cGMP-PKG signaling pathway
[55] = KEGG ko04075 Plant hormone signal transduction
[56] = KEGG ko04140 Regulation of autophagy
[57] = KEGG ko04211 Longevity regulating pathway
[58] = KEGG ko04212 Longevity regulating pathway - worm
[59] = KEGG ko04370 VEGF signaling pathway
[60] = KEGG ko04380 Osteoclast differentiation
[61] = KEGG ko04614 Renin-angiotensin system
[62] = KEGG ko04626 Plant-pathogen interaction
[63] = KEGG ko04650 Natural killer cell mediated cytotoxicity
[64] = KEGG ko04660 T cell receptor signaling pathway
[65] = KEGG ko04662 B cell receptor signaling pathway
[66] = KEGG ko04712 Circadian rhythm - plant
[67] = KEGG ko04720 Long-term potentiation
[68] = KEGG ko04723 Retrograde endocannabinoid signaling
[69] = KEGG ko04724 Glutamatergic synapse
[70] = KEGG ko04810 Regulation of actin cytoskeleton
[71] = KEGG ko04920 Adipocytokine signaling pathway
[72] = KEGG ko04921 Oxytocin signaling pathway
[73] = KEGG ko04922 Glucagon signaling pathway
[74] = KEGG ko04974 Protein digestion and absorption
[75] = KEGG ko04975 Fat digestion and absorption
[76] = tobacco roots, 5 μM irrigated twice, coregulated genes, vs DMSO

SMILES: c1nc2nc(Nc3ccc(N4CCOCC4)cc3)nc(NC3CCCCC3)c2[nH]1 [Reversine]
- IC50 [1]: 400 nM
- Enrichment_score [2, 6]: 2.934
- ListHits [2, 6]: 15
- Enrichment_score [2, 7]: 3.3846
- ListHits [2, 7]: 8
- Enrichment_score [2, 8]: 4.956
- ListHits [2, 8]: 8
- Enrichment_score [2, 9]: 1.21
- ListHits [2, 9]: 2
- Enrichment_score [2, 10]: 7.653
- ListHits [2, 10]: 15
- Enrichment_score [2, 11]: 3.7618
- ListHits [2, 11]: 6
- Enrichment_score [2, 12]: 2.781
- ListHits [2, 12]: 7
- Enrichment_score [2, 13]: 1.037
- ListHits [2, 13]: 5
- Enrichment_score [2, 14]: 0.913
- ListHits [2, 14]: 1
- Enrichment_score [2, 15]: 1.626
- ListHits [2, 15]: 4
- Enrichment_score [2, 16]: 1.051
- ListHits [2, 16]: 2
- Enrichment_score [2, 17]: 3.252
- ListHits [2, 17]: 6
- Enrichment_score [2, 18]: 0.7434
- ListHits [2, 18]: 2
- Enrichment_score [2, 19]: 2.082
- ListHits [2, 19]: 1
- Enrichment_score [2, 20]: 1.927
- ListHits [2, 20]: 5
- Enrichment_score [2, 21]: 0.8174
- ListHits [2, 21]: 3
- Enrichment_score [2, 22]: 2.951
- ListHits [2, 22]: 33
- Enrichment_score [2, 23]: 1.531
- ListHits [2, 23]: 1
- Enrichment_score [2, 24]: 2.188
- ListHits [2, 24]: 14
- Enrichment_score [2, 25]: 1.406
- ListHits [2, 25]: 1
- Enrichment_score [2, 26]: 2.775
- ListHits [2, 26]: 8
- Enrichment_score [2, 27]: 3.221
- ListHits [2, 27]: 13
- Enrichment_score [2, 28]: 3.154
- ListHits [2, 28]: 2
- Enrichment_score [2, 29]: 6.195
- ListHits [2, 29]: 5
- Enrichment_score [2, 30]: 5.4777
- ListHits [2, 30]: 12
- Enrichment_score [2, 31]: 2.739
- ListHits [2, 31]: 1
- Enrichment_score [2, 32]: 5.782
- ListHits [2, 32]: 1
- Enrichment_score [2, 33]: 2.041
- ListHits [2, 33]: 2
- Enrichment_score [2, 34]: 1.859
- ListHits [2, 34]: 1
- Enrichment_score [2, 35]: 2.168
- ListHits [2, 35]: 2
- Enrichment_score [2, 36]: 0.8531
- ListHits [2, 36]: 1
- Enrichment_score [2, 37]: 1.837
- ListHits [2, 37]: 3
- Enrichment_score [2, 38]: 1.735
- ListHits [2, 38]: 1
- Enrichment_score [2, 39]: 3.294
- ListHits [2, 39]: 5
- Enrichment_score [2, 40]: 0.9637
- ListHits [2, 40]: 2
- Enrichment_score [2, 41]: 3.186
- ListHits [2, 41]: 3
- Enrichment_score [2, 42]: 1.837
- ListHits [2, 42]: 3
- Enrichment_score [2, 43]: 6.155
- ListHits [2, 43]: 55
- Enrichment_score [2, 44]: 0.9548
- ListHits [2, 44]: 2
- Enrichment_score [2, 45]: 1.706
- ListHits [2, 45]: 2
- Enrichment_score [2, 46]: 1.652
- ListHits [2, 46]: 2
- Enrichment_score [2, 47]: 1.323
- ListHits [2, 47]: 3
- Enrichment_score [2, 48]: 1.679
- ListHits [2, 48]: 4
- Enrichment_score [2, 49]: 1.369
- ListHits [2, 49]: 2
- Enrichment_score ([2]; KEGG ko02010 ABC transporters): 2.788
- ListHits ([2]; KEGG ko02010 ABC transporters): 3
- Enrichment_score [2, 50]: 1.1072
- ListHits [2, 50]: 1
- Enrichment_score [2, 51]: 0.9727
- ListHits [2, 51]: 2
- Enrichment_score [2, 52]: 1.665
- ListHits [2, 52]: 4
- Enrichment_score [2, 53]: 0.9376
- ListHits [2, 53]: 2
- Enrichment_score [2, 54]: 0.7381
- ListHits [2, 54]: 2
- Enrichment_score [2, 55]: 1.411
- ListHits [2, 55]: 18
- Enrichment_score [2, 56]: 0.6505
- ListHits [2, 56]: 1
- Enrichment_score ([2]; KEGG ko04146 Peroxisome): 1.786
- ListHits ([2]; KEGG ko04146 Peroxisome): 7
- Enrichment_score [2, 57]: 1.229
- ListHits [2, 57]: 3
- Enrichment_score [2, 58]: 1.436
- ListHits [2, 58]: 4
- Enrichment_score ([2]; KEGG ko04360 Axon guidance): 1.183
- ListHits ([2]; KEGG ko04360 Axon guidance): 2
- Enrichment_score [2, 59]: 1.8259
- ListHits [2, 59]: 2
- Enrichment_score [2, 60]: 1.8259
- ListHits [2, 60]: 2
- Enrichment_score [2, 61]: 7.434
- ListHits [2, 61]: 2
- Enrichment_score [2, 62]: 1.449
- ListHits [2, 62]: 12
- Enrichment_score [2, 63]: 1.9637
- ListHits [2, 63]: 2
- Enrichment_score [2, 64]: 2.365
- ListHits [2, 64]: 2
- Enrichment_score [2, 65]: 1.794
- ListHits [2, 65]: 2
- Enrichment_score [2, 66]: 1.03
- ListHits [2, 66]: 2
- Enrichment_score [2, 67]: 1.352
- ListHits [2, 67]: 2
- Enrichment_score [2, 68]: 1.239
- ListHits [2, 68]: 1
- Enrichment_score [2, 69]: 2.42
- ListHits [2, 69]: 4
- Enrichment_score ([2]; KEGG ko04727 GABAergic synapse): 1.466
- ListHits ([2]; KEGG ko04727 GABAergic synapse): 2
- Enrichment_score [2, 70]: 1.14
- ListHits [2, 70]: 3
- Enrichment_score [2, 71]: 2.775
- ListHits [2, 71]: 4
- Enrichment_score [2, 72]: 0.8531
- ListHits [2, 72]: 2
- Enrichment_score [2, 73]: 0.5913
- ListHits [2, 73]: 2
- Enrichment_score ([2]; KEGG ko04924 Renin secretion): 1.859
- ListHits ([2]; KEGG ko04924 Renin secretion): 2
- Enrichment_score [2, 74]: 6.938
- ListHits [2, 74]: 2
- Enrichment_score [2, 75]: 4.337
- ListHits [2, 75]: 1
- Enrichment_score ([2]; KEGG ko04976 Bile secretion): 2.838
- ListHits ([2]; KEGG ko04976 Bile secretion): 3
- Expression levels of growth-related genes in tobacco roots ([2]; RNA-seq, GO growth, vs DMSO): differentially elevated the expression levels of most growth‐related genes
- Expression levels of RBOHs, MYB44, TGA2, WRKY19, EFR, FLS2, PR1 and PDF1.4 in tobacco roots ([2]; RNA-seq, vs DMSO): significantly increased the expression levels
- Antioxidant genes (GO antioxidant activity) up-regulated [2, 76]: 60 of 61
- Immune genes (GO immune system process) up-regulated [2, 76]: 70 of 82
- Environmental adaptation-related genes (KEGG) up-regulated ([2]; tobacco roots, coregulated genes, vs DMSO): 22 of 29
- Inhibition rate of ANJEA-CD kinase activity [5]: lower than 55%
